Assay: Dissolution of X-gal (and antibiotics) in non-toxic solvents
Assay type: physicochemical
Details: non-toxic solvent solutions of the invention
Method: A combination of essential oil was extracted with chloroform in order to remove part of the oil phase, and create a semi-precipitated emulsion. For example, 20 ml of citrus extract, pine terpenoids, limonene oils and linseed oil was mixed with 20 ml of Chloroform by vigorously shaking in a 50 ml falcon tube. The resulting mix was let stand for approximately one day, and then the upper phase was transferred to a 15 ml falcon tube.

Structure (SMILES) | dissolution in the same solutions as X-gal
CC1(C)S[C@@H]2[C@H](NC(=O)[C@H](N)c3ccccc3)C(=O)N2[C@H]1C(=O)O [Ampicillin] | stable dissolution
O=C(N[C@H](CO)[C@H](O)c1ccc([N+](=O)[O-])cc1)C(Cl)Cl [Chloramphenicol] | stable dissolution
CN(C)[C@@H]1C(=O)C(C(N)=O)=C(O)[C@@]2(O)C(=O)C3=C(O)c4c(O)cccc4[C@@](C)(O)[C@H]3C[C@@H]12 [Tetracyclin] | stable dissolution

From patent US8501433B2, “Solvent for chromogenic substrate solution” (Pierce Biotechnology, Inc., priority 2002, dated 2013)
